# Measurements from US7723329B2, “Substituted-3-sulfonylindazole derivatives as 5-hydroxytryptamine-6 ligands” (Wyeth LLC, priority 2005, dated 2010).
# Counter-ions that a name gives are not always drawn.
# Molecular target: T1, human cloned 5-HT6 receptors (Homo sapiens, UniProt P50406)
# T1 construct: expressed in transfected cells; host or cells: HeLa cells
# Assay: 5-HT6 binding affinity, [3H]-LSD displacement
# Settings: membranes of Hela cells expressing human cloned 5-HT6 receptors; [3H]-LSD 3.0 nM; 120 minutes at room temperature
# Experimental: The affinity of test compounds for the serotonin 5-HT6 receptor was evaluated in the following manner. Cultured Hela cells expressing human cloned 5-HT6 receptors were harvested and centrifuged at low speed (1,000×g) for 10.0 minutes to remove the culture media. The harvested cells were suspended in half volume of fresh physiological phosphate buffered saline solution and recentrifuged at the same speed. This operation was repeated. The collected cells were then homogenized in ten volumes of 50 mM Tris.HCl (pH 7.4) and 0.5 mM EDTA. The homogenate was centrifuged at 40,000×g for 30.0 min and the precipitate was collected. The obtained pellet was resuspended in 10 volumes of Tris.HCl buffer and recentrifuged at the same speed. The final pellet was suspended in a small volume of Tris.HCl buffer and the tissue protein content was determined in aliquots of 10-25 μl volumes. […] The volume of the suspended cell membranes was adjusted to give a tissue protein concentration of 1.0 mg/ml of suspension. The prepared membrane suspension (10 times concentrated) was aliquoted in 1.0 ml volumes and stored at −70° C. until used in subsequent binding experiments.
# The bound complex caught on the filter disk was allowed to air dry and the radioactivity is measured in a Packard TopCount® equipped with six photomultiplier detectors, after the addition of 40.0 μl Microscint®-20 scintillant to each shallow well. The unifilter plate was heat-sealed and counted in a PackardTopCount® with a tritium efficiency of 31.0%.
# Specific binding to the 5-HT6 receptor was defined as the total radioactivity bound less the amount bound in the presence of 10.0 μM unlabeled methiothepin. Binding in the presence of varying concentrations of test compound was expressed as a percentage of specific binding in the absence of test compound. The results were plotted as log % bound versus log concentration of test compound. […] A linear regression line of data points was plotted, from which the IC50 value is determined and the Ki value is determined based upon the following equation: Ki=IC50/(1+L/KD) where L was the concentration of the radioactive ligand used and KD is the dissociation constant of the ligand for the receptor, both expressed in nM.
# T1 sequence (P50406 whole entry): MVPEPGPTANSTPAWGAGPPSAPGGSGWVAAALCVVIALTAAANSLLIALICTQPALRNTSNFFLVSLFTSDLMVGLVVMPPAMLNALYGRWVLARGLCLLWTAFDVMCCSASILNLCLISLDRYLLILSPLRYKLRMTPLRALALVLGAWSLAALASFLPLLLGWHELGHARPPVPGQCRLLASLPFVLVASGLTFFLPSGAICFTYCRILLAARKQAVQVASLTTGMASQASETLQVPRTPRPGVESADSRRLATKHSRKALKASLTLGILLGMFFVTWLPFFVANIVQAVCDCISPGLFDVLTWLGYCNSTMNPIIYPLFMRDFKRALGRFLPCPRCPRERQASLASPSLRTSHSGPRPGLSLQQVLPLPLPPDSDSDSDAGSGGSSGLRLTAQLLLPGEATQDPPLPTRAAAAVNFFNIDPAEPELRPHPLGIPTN
row,Structure (SMILES),Ki [nM]
1,CCNCCOc1cccc2c(S(=O)(=O)c3ccccc3)nn(Cc3cccc(Cl)c3)c12 [Example 83],26 to 35
2,CCN(CC)CCOc1cccc2c(S(=O)(=O)c3ccccc3)nn(Cc3cccc(Cl)c3)c12 [Example 84],> 45
3,CCCCNCCOc1cccc2c(S(=O)(=O)c3ccccc3)nn(Cc3cccc(Cl)c3)c12 [Example 85],> 45
4,O=S(=O)(c1ccccc1)c1nn(Cc2cccc(Cl)c2)c2c(OCCN3CCCC3)cccc12 [Example 86],26 to 35
5,O=S(=O)(c1ccccc1)c1nn(Cc2cccc(Cl)c2)c2c(OCCN3CCCCC3)cccc12 [Example 87],> 45
6,CNCCOc1cccc2c(S(=O)(=O)c3ccccc3)n[nH]c12 [Example 88],0.01 to 10
7,CCNCCOc1cccc2c(S(=O)(=O)c3ccccc3)n[nH]c12 [Example 89],0.01 to 10
8,CCN(CC)CCOc1cccc2c(S(=O)(=O)c3ccccc3)n[nH]c12 [Example 90],0.01 to 10
9,CCCCNCCOc1cccc2c(S(=O)(=O)c3ccccc3)n[nH]c12 [Example 91],0.01 to 10
10,O=S(=O)(c1ccccc1)c1n[nH]c2c(OCCN3CCCC3)cccc12 [Example 92],0.01 to 10
11,O=S(=O)(c1ccccc1)c1n[nH]c2c(OCCN3CCCCC3)cccc12 [Example 93],0.01 to 10
12,CCNCCOc1cccc2c(S(=O)(=O)c3cccc4ccccc34)nn(C)c12 [Example 95],0.01 to 10
13,CN(C)CCOc1cccc2c(S(=O)(=O)c3cccc4ccccc34)nn(C)c12 [Example 96],> 45
14,CCN(CC)CCOc1cccc2c(S(=O)(=O)c3cccc4ccccc34)nn(C)c12 [Example 97],0.01 to 10
15,CCCCNCCOc1cccc2c(S(=O)(=O)c3cccc4ccccc34)nn(C)c12 [Example 98],26 to 35
16,Cn1nc(S(=O)(=O)c2cccc3ccccc23)c2cccc(OCCN3CCCCC3)c21 [Example 99],0.01 to 10
17,Cn1nc(S(=O)(=O)c2cccc3ccccc23)c2cccc(OCCN3CCCC3)c21 [Example 100],11 to 25
18,CNCCOc1cccc2c(S(=O)(=O)c3ccccc3)nn(C)c12 [Example 101],11 to 25
19,CCNCCOc1cccc2c(S(=O)(=O)c3ccccc3)nn(C)c12 [Example 102],26 to 35
20,CCN(CC)CCOc1cccc2c(S(=O)(=O)c3ccccc3)nn(C)c12 [Example 103],> 45
21,Cn1nc(S(=O)(=O)c2ccccc2)c2cccc(OCCN3CCCC3)c21 [Example 104],26 to 35
22,Cn1nc(S(=O)(=O)c2ccccc2)c2cccc(OCCN3CCCCC3)c21 [Example 105],> 45

row,Structure (SMILES),Ki [nM]
1,"NCCOc1cc(F)cc2c(S(=O)(=O)c3cccc4ccccc34)nn(Cc3cccc(Cl)c3)c12 [Example 106, (2-{[1-(3-Chlorobenzyl)-5-fluoro-3-(1-naphthylsulfonyl)-1H-indazol-7-yl]oxy}ethyl)amine]",> 45
2,"CNCCOc1cc(F)cc2c(S(=O)(=O)c3cccc4ccccc34)nn(Cc3cccc(Cl)c3)c12 [Example 107, (2-{[1-(3-chlorobenzyl)-5-fluoro-3-(1-naphthylsulfonyl)-1H-indazol-7-yl]oxy}ethyl)methylamine Hydrochloride]",> 45
3,CCNCCOc1cc(F)cc2c(S(=O)(=O)c3cccc4ccccc34)nn(Cc3cccc(Cl)c3)c12 [Example 108],> 45
4,CN(C)CCOc1cc(F)cc2c(S(=O)(=O)c3cccc4ccccc34)nn(Cc3cccc(Cl)c3)c12 [Example 109],11 to 25
5,CCN(CC)CCOc1cc(F)cc2c(S(=O)(=O)c3cccc4ccccc34)nn(Cc3cccc(Cl)c3)c12 [Example 110],> 45
6,O=S(=O)(c1cccc2ccccc12)c1nn(Cc2cccc(Cl)c2)c2c(OCCN3CCCCC3)cc(F)cc12 [Example 111],> 45
7,O=S(=O)(c1cccc2ccccc12)c1nn(Cc2cccc(Cl)c2)c2c(OCCN3CCCC3)cc(F)cc12 [Example 112],> 45
8,CNCCOc1cc(OC)cc2c(S(=O)(=O)c3cccc4ccccc34)nn(Cc3cccc(Cl)c3)c12 [Example 119],> 45
9,CCNCCOc1cc(OC)cc2c(S(=O)(=O)c3cccc4ccccc34)nn(Cc3cccc(Cl)c3)c12 [Example 120],> 45
10,COc1cc(OCCN(C)C)c2c(c1)c(S(=O)(=O)c1cccc3ccccc13)nn2Cc1cccc(Cl)c1 [Example 121],> 45
11,COc1cc(OCCN2CCCCC2)c2c(c1)c(S(=O)(=O)c1cccc3ccccc13)nn2Cc1cccc(Cl)c1 [Example 122],0.01 to 10
12,COc1cc(OCCN2CCCC2)c2c(c1)c(S(=O)(=O)c1cccc3ccccc13)nn2Cc1cccc(Cl)c1 [Example 123],> 45
13,CNCCCOc1cccc2c(S(=O)(=O)c3cccc4ccccc34)nn(Cc3cccc(Cl)c3)c12 [Example 128],> 45
14,CCNCCCOc1cccc2c(S(=O)(=O)c3cccc4ccccc34)nn(Cc3cccc(Cl)c3)c12 [Example 129],> 45
15,CN(C)CCCOc1cccc2c(S(=O)(=O)c3cccc4ccccc34)nn(Cc3cccc(Cl)c3)c12 [Example 130],> 45
16,CCN(CC)CCCOc1cccc2c(S(=O)(=O)c3cccc4ccccc34)nn(Cc3cccc(Cl)c3)c12 [Example 131],11 to 25
17,O=S(=O)(c1cccc2ccccc12)c1nn(Cc2cccc(Cl)c2)c2c(OCCCN3CCCCC3)cccc12 [Example 132],26 to 35
18,O=S(=O)(c1cccc2ccccc12)c1nn(Cc2cccc(Cl)c2)c2c(OCCCN3CCCC3)cccc12 [Example 133],11 to 25
19,NCCOc1cccc2c(S(=O)(=O)c3ccccc3)n[nH]c12 [Example 139],0.01 to 10
20,NCCOc1cc(F)cc2c(S(=O)(=O)c3ccccc3)n[nH]c12 [Example 140],0.01 to 10
21,NCCOc1cccc2[nH]nc(S(=O)(=O)c3cccc4ccccc34)c12 [Example 141],11 to 25

# The remaining lines, values ahead:
row,Ki [nM],Structure (SMILES)
1,0.01 to 10,CNCCOc1cc(F)cc2c(S(=O)(=O)c3cccc4ccccc34)n[nH]c12 [Example 113]
2,0.01 to 10,CCNCCOc1cc(F)cc2c(S(=O)(=O)c3cccc4ccccc34)n[nH]c12 [Example 114]
3,11 to 25,CN(C)CCOc1cc(F)cc2c(S(=O)(=O)c3cccc4ccccc34)n[nH]c12 [Example 115]
4,11 to 25,CCN(CC)CCOc1cc(F)cc2c(S(=O)(=O)c3cccc4ccccc34)n[nH]c12 [Example 116]
5,0.01 to 10,O=S(=O)(c1cccc2ccccc12)c1n[nH]c2c(OCCN3CCCCC3)cc(F)cc12 [Example 117]
6,0.01 to 10,O=S(=O)(c1cccc2ccccc12)c1n[nH]c2c(OCCN3CCCC3)cc(F)cc12 [Example 118]
7,11 to 25,CNCCOc1cc(OC)cc2c(S(=O)(=O)c3cccc4ccccc34)n[nH]c12 [Example 124]
8,11 to 25,COc1cc(OCCN(C)C)c2[nH]nc(S(=O)(=O)c3cccc4ccccc34)c2c1 [Example 125]
9,0.01 to 10,COc1cc(OCCN2CCCCC2)c2[nH]nc(S(=O)(=O)c3cccc4ccccc34)c2c1 [Example 126]
10,11 to 25,COc1cc(OCCN2CCCC2)c2[nH]nc(S(=O)(=O)c3cccc4ccccc34)c2c1 [Example 127]
11,11 to 25,CNCCCOc1cccc2c(S(=O)(=O)c3cccc4ccccc34)n[nH]c12 [Example 134]
12,36 to 45,CCNCCCOc1cccc2c(S(=O)(=O)c3cccc4ccccc34)n[nH]c12 [Example 135]
13,36 to 45,CN(C)CCCOc1cccc2c(S(=O)(=O)c3cccc4ccccc34)n[nH]c12 [Example 136]
14,26 to 35,CCN(CC)CCCOc1cccc2c(S(=O)(=O)c3cccc4ccccc34)n[nH]c12 [Example 137]
15,36 to 45,O=S(=O)(c1cccc2ccccc12)c1n[nH]c2c(OCCCN3CCCCC3)cccc12 [Example 138]
16,11 to 25,"NCCOc1ccc2c(S(=O)(=O)c3cccc4ccccc34)n[nH]c2c1 [Example 146, 2-{[3-(1-Naphtylsulfonyl)-1H-indazol-6-yl]oxy}ethanamine]"
17,11 to 25,"CNCCOc1ccc2c(S(=O)(=O)c3cccc4ccccc34)n[nH]c2c1 [Example 147, N-Methyl-2-{[3-(1-naphthylsulfonyl)-1H-indazol-6-yl]oxy}ethanamine Hydrochloride]"
18,> 45,CN(C)CCOc1ccc2c(S(=O)(=O)c3cccc4ccccc34)n[nH]c2c1 [Example 148]
19,> 45,O=S(=O)(c1cccc2ccccc12)c1n[nH]c2cc(OCCN3CCCCC3)ccc12 [Example 149]
20,> 45,O=S(=O)(c1cccc2ccccc12)c1n[nH]c2cc(OCCN3CCCC3)ccc12 [Example 150]
21,0.01 to 10,"CN(C)CCNC(=O)c1ccc2[nH]nc(S(=O)(=O)c3cccc4ccccc34)c2c1 [Example 151, N-[2-(Dimethylamino)ethyl]-3-(1-naphthylsulfonyl)-1H-indazole-5-carboxamide]"
22,> 45,"O=C(NCCN1CCCCC1)c1ccc2[nH]nc(S(=O)(=O)c3cccc4ccccc34)c2c1 [Example 152, 3-(1-Naphtylsulfonyl)-N-(2-piperidin-1-ylethyl)-1H-indazole-5-carboxamide]"
